# US20110059043A1, “CHEMICAL COMPOUNDS” (priority 2009, published 2011)
# pIC50: −log10 of the molar value.
# How the values were obtained:
# [1] = biological target: T1, Recombinant HCV polymerase (BK strain) (Hepatitis C virus genotype 1b, UniProt P26663); test: HCV polymerase enzyme assay (radiometric [33P]-UTP incorporation); type: biochemical, HCV 1b
# T1 construct: Recombinant HCV polymerase (BK strain) was expressed and purified from E. coli with a 21 amino acid C-terminal deletion; His6; made in house; host or cells: E. coli
# Method in brief: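 His6-tagged BK-strain NS5B lacking 21 C-terminal residues, expressed in E. coli, at 100 nM in Tris pH 7.5 with 5 mM MgCl2 and 3% DMSO. Substrates: 125 nM biotin-U13:0.63 μg/ml PolyA, 200 nM UTP plus [33P]-UTP; 100 min at 25° C. Incorporation read by streptavidin capture; IC50 from 8-point curve.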
# [2] = system: HCV replicon cells Huh 9B; test: HCV replicon assay (luciferase); type: cell-based; conditions: Hepatitis C virus, reduction of replicon level by 50% vs untreated cell control, 72 h
# [3] = system: HCV replicon cells Huh 9B; type: cell-based; conditions: concentration reducing total cell area by 50% relative to DMSO controls; 72 h
# Method in brief: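 Huh 9B replicon cells (luciferase-ubiquitin-neomycin fusion, EMCV-IRES-driven HCV polyprotein with adaptive mutations) were seeded from a 100,000 cells/ml suspension in G418-free medium, grown 24 h, then exposed to compound (dilutions at 1% DMSO) for 72 h at 37 °C. For toxicity, methylene blue staining was read at 620 nm and TD50 derived relative to DMSO controls.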
# T1 sequence (P26663 2420-2989): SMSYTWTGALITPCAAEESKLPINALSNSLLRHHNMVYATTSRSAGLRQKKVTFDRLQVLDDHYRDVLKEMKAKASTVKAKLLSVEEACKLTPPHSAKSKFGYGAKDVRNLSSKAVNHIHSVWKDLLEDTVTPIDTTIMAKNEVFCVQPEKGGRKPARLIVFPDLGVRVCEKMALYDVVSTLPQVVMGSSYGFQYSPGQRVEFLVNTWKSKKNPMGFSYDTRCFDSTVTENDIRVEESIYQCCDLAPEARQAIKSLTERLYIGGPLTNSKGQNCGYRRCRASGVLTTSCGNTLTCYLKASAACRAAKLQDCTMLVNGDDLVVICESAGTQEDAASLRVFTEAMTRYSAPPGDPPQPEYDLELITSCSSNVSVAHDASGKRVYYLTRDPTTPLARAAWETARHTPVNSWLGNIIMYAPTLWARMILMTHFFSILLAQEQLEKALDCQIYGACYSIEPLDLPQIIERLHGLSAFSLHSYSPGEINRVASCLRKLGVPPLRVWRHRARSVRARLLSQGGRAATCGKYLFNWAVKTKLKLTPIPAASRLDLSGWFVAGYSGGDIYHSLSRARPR
Compound,pIC50 [1],pIC50 [2],Replicon Assay Value TD50 [3] [µM]
"COCCOc1ncc(F)cc1C(=O)N[C@@H]1N=C(c2c(Cl)cc(Cl)cc2Cl)c2ccccc2NC1=O [Example 64, (R)-5-Fluoro-2-(2-methoxyethoxy)-N-(2-oxo-5-(2,4,6-trichlorophenyl)-2,3-dihydro-1H-benzo[e][1,4]diazepin-3-yl)nicotinamide]",5.68,6.62,23.452
"CCOCCOc1ncc(F)cc1C(=O)N[C@H]1N=C(c2c(Cl)cc(Cl)cc2Cl)c2ccccc2NC1=O [Example 65, (S)-2-(2-Ethoxyethoxy)-5-fluoro-N-(2-oxo-5-(2,4,6-trichlorophenyl)-2,3-dihydro-1H-benzo[e][1,4]diazepin-3-yl)nicotinamide]",7.49,8.32,10.854
"CCOCCOc1ncc(F)cc1C(=O)N[C@@H]1N=C(c2c(Cl)cc(Cl)cc2Cl)c2ccccc2NC1=O [Example 66, (R)-2-(2-Ethoxyethoxy)-5-fluoro-N-(2-oxo-5-(2,4,6-trichlorophenyl)-2,3-dihydro-1H-benzo[e][1,4]diazepin-3-yl)nicotinamide]",5.65,6.79,16.686
"COCCN(C)c1ncc(F)cc1C(=O)N[C@H]1N=C(c2c(Cl)cc(Cl)cc2Cl)c2ccccc2NC1=O [Example 67, (S)-5-Fluoro-2-((2-methoxyethyl)(methyl)amino)-N-(2-oxo-5-(2,4,6-trichlorophenyl)-2,3-dihydro-1H-benzo[e][1,4]diazepin-3-yl)nicotinamide]",7.44,7.95,13.07
"COCCN(C)c1ncc(F)cc1C(=O)N[C@@H]1N=C(c2c(Cl)cc(Cl)cc2Cl)c2ccccc2NC1=O [Example 68, (R)-5-Fluoro-2-((2-methoxyethyl)(methyl)amino)-N-(2-oxo-5-(2,4,6-trichlorophenyl)-2,3-dihydro-1H-benzo[e][1,4]diazepin-3-yl)nicotinamide]",5.29,6.44,16.618
"CCOc1cc(Cl)cc(Cl)c1C1=N[C@H](NC(=O)c2cc(F)ccc2OCCOC)C(=O)Nc2ccccc21 [Example 69, (S)—N-(5-(2,4-Dichloro-6-ethoxyphenyl)-2-oxo-2,3-dihydro-1H-benzo[e][1,4]diazepin-3-yl)-5-fluoro-2-(2-methoxyethoxy)benzamide]",7.10,7.50,17.731
"CCOc1cc(Cl)cc(Cl)c1C1=N[C@@H](NC(=O)c2cc(F)ccc2OCCOC)C(=O)Nc2ccccc21 [Example 70, (R)—N-(5-(2,4-Dichloro-6-ethoxyphenyl)-2-oxo-2,3-dihydro-1H-benzo[e][1,4]diazepin-3-yl)-5-fluoro-2-(2-methoxyethoxy)benzamide]",5.27,6.13,24.592
